Assay results from patent EP4818168A1, “FUSED RING COMPOUND, PHARMACEUTICAL COMPOSITION THEREOF AND USE THEREOF” (priority 2023, dated 2025).
Read-outs that look alike come from different tables or passages of the source.

Assays:
[1] = biological target: T1, AURKA (Homo sapiens, UniProt O14965); format: cell-based
T1 construct: endogenous in cells; host or cells: Jurkat cells
T1 sequence (O14965 1-403): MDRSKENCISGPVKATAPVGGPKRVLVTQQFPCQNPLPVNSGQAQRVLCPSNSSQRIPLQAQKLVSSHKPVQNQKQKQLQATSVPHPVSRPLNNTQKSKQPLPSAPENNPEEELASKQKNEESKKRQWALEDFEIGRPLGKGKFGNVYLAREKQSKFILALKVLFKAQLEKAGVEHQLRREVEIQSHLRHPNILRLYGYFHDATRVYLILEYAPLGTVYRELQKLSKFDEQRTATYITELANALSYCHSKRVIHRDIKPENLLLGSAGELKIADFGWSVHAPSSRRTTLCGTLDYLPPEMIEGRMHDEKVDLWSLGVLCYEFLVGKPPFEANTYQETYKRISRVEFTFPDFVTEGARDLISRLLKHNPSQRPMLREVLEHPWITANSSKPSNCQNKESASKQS
How it was run: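 AURKA degradation read by western blot: band signal, fluorescent or chemiluminescent, curve-fitted to derive DC50. Cells were Jurkat, plated at 1×10^6 cells/500 µL with compound, then lysed and blotted onto nitrocellulose, primary antibody overnight at 4°C.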

[2] = test system: HCC1806 cells; test: CTG assay of compound inhibition on cell viability (HCC1806 cells); format: cell-based; conditions: Homo sapiens, HCC1806, 144 h, read-out: IC50 in HCC1806 Cells
Description: CellTiter-Glo (CTG) is a rapid cell viability test method based on ATP detection. […] Adenosine triphosphate (ATP) participates in various enzymatic reactions in organisms and is an indicator of living cell metabolism. Its content directly reflects the number of living cells and cell status. During the experiment, equal volume of CTG reagent is added to the cultured cells to measure the luminescence value. The chemiluminescent signal value is proportional to the amount of ATP, thus reflecting the number of viable cells. Therefore, cell viability can be obtained by detecting the ATP content. Compounds that affect cell viability will inhibit cell viability in a concentration-dependent manner, allowing a curve to be fitted to obtain the IC50 value.
The experimental procedure is as follows: • 11. Place the cell suspension in a 15 mL centrifuge tube, centrifuge at 1000 rpm for 5 min at room temperature, discard the supernatant, and collect the cell pellet. • 12. Resuspend the cell pellet with preheated complete cell culture medium (RPMI1640+10%FBS+1%PS), and use a Countess® automated cell counter to detect cell viability and density. The cell viability must be above 90%. • 13. […] Transfer the compound solution to a 96-well plate seeded with cells (final concentration of DMSO 0.1%), and place in a cell incubator at 37°C, 5% CO2 for 6 days. • 15. […] Protect from light during the whole process. Perform optical signal readings using a SpectraMax i3x reader. • 16. Data analysis: Remaining activity (%) = 100% * (1 - ((LumDMSO - Lummedium) - Lumsample) / (LumDMSO - LumPBS/medium)). Use GraphPad Prism 9.0 software to draw an S-shaped dose-survival rate curve and calculate the IC50 value using a nonlinear regression model.

[3] = 100 nM compound, Jurkat cells, 24 h, Table 1
[4] = 1 µM compound, Jurkat cells, 24 h, Table 1

Compound | Percentage of AURKA Degradation Induced by 100 nM Compound in Jurkat Cells [1, 3] | Percentage of AURKA Degradation Induced by 1 µM Compound in Jurkat Cells [1, 4] | IC50 [2] | Percentage of AURKA Degradation Induced by 100 nM Compound in Jurkat Cells [1] | Percentage of AURKA Degradation Induced by 1 µM Compound in Jurkat Cells [1]
COc1cccc(F)c1C1=NCc2cnc(Nc3ccc(C(=O)NC4CC5(CCN(c6ccc(N7CCC(=O)NC7=O)cc6)CC5)C4)cc3)nc2-c2ccc(Cl)cc21 [Compound A46] | +++ (Degradation > 70%) | +++ (Degradation > 70%) | < 1 µM |  | 
COc1cc(Nc2ncc3c(n2)-c2ccc(Cl)cc2C(c2c(F)cccc2OC)=NC3)ccc1C(=O)NCCN1CCN(c2ccc(C3CCC(=O)NC3=O)cc2)CC1 (stereo not drawn) [Compound A47] |  |  | < 1 µM | ++ (key: +: Degradation ≤ 30%; ++: 30% < Degradation ≤ 70%; +++: Degradation > 70%) | + (key: +: Degradation ≤ 30%; ++: 30% < Degradation ≤ 70%; +++: Degradation > 70%)
COc1cc(Nc2ncc3c(n2)-c2ccc(Cl)cc2C(c2c(F)cccc2OC)=NC3)ccc1C(=O)NC1CN(CCc2ccc(N3CCC(=O)NC3=O)cc2)C1 [Compound A48] | + (Degradation ≤ 30%) | + (Degradation ≤ 30%) | < 1 µM |  | 
COc1cc(Nc2ncc3c(n2)-c2ccc(Cl)cc2C(c2c(F)cccc2OC)=NC3)ccc1C(=O)N[C@H]1C[C@H](C#Cc2ccc(N3CCC(=O)NC3=O)cc2)C1 [Compound A51] | ++ (30% < Degradation ≤ 70%) | +++ (Degradation > 70%) | 1 to 10 µM |  | 
O=C1CCN(c2cccc(C#C[C@H]3C[C@H](NC(=O)c4ccc(Nc5ncc6c(n5)-c5ccc(Cl)cc5C(c5c(F)cccc5F)=NC6)cc4)C3)c2)C(=O)N1 [Compound A52] | ++ (30% < Degradation ≤ 70%) | ++ (30% < Degradation ≤ 70%) | < 1 µM |  | 
COc1cc(Nc2ncc3c(n2)-c2ccc(Cl)cc2C(c2c(F)cccc2OC)=NC3)ccc1C(=O)NC1CC2(CCN(c3ccc(N4CCC(=O)NC4=O)cn3)CC2)C1 [Compound A54] | +++ (Degradation > 70%) | +++ (Degradation > 70%) | < 1 µM |  | 
O=C1CCN(c2ccc(N3CCC4(CC3)CC(NC(=O)c3ccc(Nc5ncc6c(n5)-c5ccc(Cl)cc5C(c5c(F)cccc5F)=NC6)cc3)C4)nc2)C(=O)N1 [Compound A55] | +++ (Degradation > 70%) | +++ (Degradation > 70%) | < 1 µM |  | 
O=C1CCN(c2ccc(N3CC4(CCC(NC(=O)c5ccc(Nc6ncc7c(n6)-c6ccc(Cl)cc6C(c6c(F)cccc6F)=NC7)cc5)CC4)C3)cc2)C(=O)N1 [Compound A56] | +++ (Degradation > 70%) | +++ (Degradation > 70%) | < 1 µM |  | 
COc1cc(Nc2ncc3c(n2)-c2ccc(Cl)cc2C(c2c(F)cccc2OC)=NC3)ccc1C(=O)NC1CCC2(CC1)CN(c1ccc(N3CCC(=O)NC3=O)cc1)C2 [Compound A57] | +++ (Degradation > 70%) | +++ (Degradation > 70%) | < 1 µM |  | 
COc1cc(Nc2ncc3c(n2)-c2ccc(Cl)cc2C(c2c(F)cccc2OC)=NC3)ccc1C(=O)NC1CC2(C1)CN(c1ccc(N3CCC(=O)NC3=O)cc1)C2 [Compound A58] | ++ (30% < Degradation ≤ 70%) | ++ (30% < Degradation ≤ 70%) | < 1 µM |  | 
O=C1CCN(c2ccc(N3CC4(CC(NC(=O)c5ccc(Nc6ncc7c(n6)-c6ccc(Cl)cc6C(c6c(F)cccc6F)=NC7)cc5)C4)C3)cc2)C(=O)N1 [Compound A59] | ++ (30% < Degradation ≤ 70%) | +++ (Degradation > 70%) | < 1 µM |  | 
